Assay results: paper PMC8217170, “Phase Ib dose-escalation study of the hypoxia-modifier Myo-inositol trispyrophosphate in patients with hepatopancreatobiliary tumors” (Nature Communications, 2021)
Where “and” joins values, the source holds several entries; their conditions need not be identical. Identical values can stand only once.

Test: Plasma levels and pharmacokinetics of intravenous ITPP
Settings: for VSSO / VZO / AUCTmax / AUC∞ / AUC∞ / Dose / AUMCTmax / AUMC∞ / CLO / Clast / Cmax / Cmax / Dose / Cmin / Elimination rate λz / Half-life / T0.5 / MRTTmax / MRT∞ / Tlast / Tmax: individual patients

O=P1(O)OC2C3OP(=O)(O)OP(=O)(O)OC3C3OP(=O)(O)OP(=O)(O)OC3C2OP(=O)(O)O1 (stereo not drawn) [ITPP, Myo-inositol trispyrophosphate]
VSSO (cohort 2 (3732 mg/m2)): 10.6 L and 11.9 L and 8.8 L | VZO (cohort 2 (3732 mg/m2)): 8.9 L and 10.8 L and 8.1 L | AUCTmax (cohort 3 (5600 mg/m2)): 1142.0 µg·h/mL and 856.4 µg·h/mL and 1779.2 µg·h/mL | AUC∞ (cohort 3 (5600 mg/m2)): 1264.3 µg·h/mL and 945.9 µg·h/mL and 1987.5 µg·h/mL | AUC∞ / Dose (cohort 3 (5600 mg/m2)): 0.2 h*mg/L/mg (2×) and 0.4 h*mg/L/mg | AUMCTmax (cohort 3 (5600 mg/m2)): 6061.8 h2*mg/L and 4859.5 h2*mg/L and 9884.9 h2*mg/L | AUMC∞ (cohort 3 (5600 mg/m2)): 7579.9 h2*mg/L and 5932.4 h2*mg/L and 12427.3 h2*mg/L | CLO (cohort 3 (5600 mg/m2)): 4.4 L/h and 5.9 L/h and 2.8 L/h | Clast (cohort 3 (5600 mg/m2)): 50.5 µg/mL and 45.2 µg/mL and 94.2 µg/mL | Cmax (cohort 3 (5600 mg/m2)): 163.0 µg/mL and 120.7 µg/mL and 246.0 µg/mL | Cmax / Dose (cohort 3 (5600 mg/m2)): 0.0 mg/L/mg | Cmin (cohort 3 (5600 mg/m2)): 0 ng/mL | Elimination rate λz (cohort 3 (5600 mg/m2)): 0.4 /h and 0.5 /h (2×) | Half-life / T0.5 (cohort 3 (5600 mg/m2)): 1.7 h and 1.4 h and 1.5 h | MRTTmax (cohort 3 (5600 mg/m2)): 1.3 h and 1.7 h and 1.6 h | MRT∞ (cohort 3 (5600 mg/m2)): 2.0 h and 2.3 h (2×) | Tlast (cohort 3 (5600 mg/m2)): 10 h | Tmax (cohort 3 (5600 mg/m2)): 6.0 h | VSSO (cohort 3 (5600 mg/m2)): 8.8 L and 13.4 L and 6.3 L | VZO (cohort 3 (5600 mg/m2)): 10.7 L and 11.7 L and 6.2 L | AUCTmax (cohort 4 (7000 mg/m2)): 1942.5 µg·h/mL and 1258.2 µg·h/mL and 1667.1 µg·h/mL and 1676.0 µg·h/mL | AUC∞ (cohort 4 (7000 mg/m2)): 3708.1 µg·h/mL and 1559.8 µg·h/mL and 2130.6 µg·h/mL and 1755.9 µg·h/mL | AUC∞ / Dose (cohort 4 (7000 mg/m2)): 0.5 h*mg/L/mg and 0.2 h*mg/L/mg and 0.3 h*mg/L/mg (2×) | AUMCTmax (cohort 4 (7000 mg/m2)): 11888.0 h2*mg/L and 7283.0 h2*mg/L and 9303.5 h2*mg/L and 8707.6 h2*mg/L | AUMC∞ (cohort 4 (7000 mg/m2)): 44109.2 h2*mg/L and 11265.8 h2*mg/L and 15649.8 h2*mg/L and 9654.5 h2*mg/L | CLO (cohort 4 (7000 mg/m2)): 1.9 L/h and 4.5 L/h and 3.3 L/h and 4.0 L/h | Clast (cohort 4 (7000 mg/m2)): 214.0 µg/mL and 94.0 µg/mL and 125.5 µg/mL and 43.0 µg/mL | Cmax (cohort 4 (7000 mg/m2)): 283.0 µg/mL and 166.5 µg/mL and 224.5 µg/mL and 292.0 µg/mL | Cmax / Dose (cohort 4 (7000 mg/m2)): 0.0 mg/L/mg | Cmin (cohort 4 (7000 mg/m2)): 0 ng/mL | Elimination rate λz (cohort 4 (7000 mg/m2)): 0.1 /h and 0.3 /h (2×) and 0.5 /h | Half-life / T0.5 (cohort 4 (7000 mg/m2)): 5.7 h and 2.2 h and 2.6 h and 1.3 h | MRTTmax (cohort 4 (7000 mg/m2)): 2.1 h and 1.8 h and 1.6 h and 1.2 h | MRT∞ (cohort 4 (7000 mg/m2)): 7.9 h and 3.2 h and 3.3 h and 1.5 h | Tlast (cohort 4 (7000 mg/m2)): 10 h | Tmax (cohort 4 (7000 mg/m2)): 9.0 h and 6.0 h (2×) and 3.0 h | VSSO (cohort 4 (7000 mg/m2)): 14.9 L and 14.5 L and 11.0 L and 6.0 L | VZO (cohort 4 (7000 mg/m2)): 15.6 L and 14.4 L and 12.1 L and 7.4 L | AUCTmax (cohort 5 (8750 mg/m2)): 1729.5 µg·h/mL and 2397.4 µg·h/mL and 1424.5 µg·h/mL | AUC∞ (cohort 5 (8750 mg/m2)): 1910.9 µg·h/mL and 2946.9 µg·h/mL and 1803.3 µg·h/mL | AUC∞ / Dose (cohort 5 (8750 mg/m2)): 0.2 h*mg/L/mg (2×) and 0.3 h*mg/L/mg | AUMCTmax (cohort 5 (8750 mg/m2)): 9560.8 h2*mg/L and 13507.9 h2*mg/L and 8120.6 h2*mg/L | AUMC∞ (cohort 5 (8750 mg/m2)): 11777.2 h2*mg/L and 20800.6 h2*mg/L and 13329.9 h2*mg/L | CLO (cohort 5 (8750 mg/m2)): 4.6 L/h and 3.0 L/h and 4.9 L/h | Clast (cohort 5 (8750 mg/m2)): 81.5 µg/mL and 168.0 µg/mL and 101.0 µg/mL | Cmax (cohort 5 (8750 mg/m2)): 266.5 µg/mL and 306.0 µg/mL and 201.0 µg/mL | Cmax / Dose (cohort 5 (8750 mg/m2)): 0.0 mg/L/mg | Cmin (cohort 5 (8750 mg/m2)): 0 ng/mL | Elimination rate λz (cohort 5 (8750 mg/m2)): 0.4 /h and 0.3 /h (2×) | Half-life / T0.5 (cohort 5 (8750 mg/m2)): 1.5 h and 2.3 h and 2.6 h | MRTTmax (cohort 5 (8750 mg/m2)): 1.5 h and 1.6 h and 1.7 h | MRT∞ (cohort 5 (8750 mg/m2)): 2.2 h and 3.1 h and 3.4 h | Tlast (cohort 5 (8750 mg/m2)): 10 h | Tmax (cohort 5 (8750 mg/m2)): 6.0 h | VSSO (cohort 5 (8750 mg/m2)): 9.9 L and 9.1 L and 16.5 L | VZO (cohort 5 (8750 mg/m2)): 10.2 L and 9.7 L and 18.2 L | AUCTmax (cohort 6 (10500 mg/m2)): 1813.1 µg·h/mL and 2491.5 µg·h/mL and 3266.4 µg·h/mL and 2233.0 µg·h/mL | AUC∞ (cohort 6 (10500 mg/m2)): 1921.1 µg·h/mL and 3551.0 µg·h/mL and 8601.3 µg·h/mL and 2661.5 µg·h/mL | AUC∞ / Dose (cohort 6 (10500 mg/m2)): 0.2 h*mg/L/mg and 0.3 h*mg/L/mg (2×) and 0.8 h*mg/L/mg | AUMCTmax (cohort 6 (10500 mg/m2)): 10264.8 h2*mg/L and 13653.6 h2*mg/L and 19354.9 h2*mg/L and 12411.4 h2*mg/L | AUMC∞ (cohort 6 (10500 mg/m2)): 11500.0 h2*mg/L and 30316.3 h2*mg/L and 157035.6 h2*mg/L and 17933.0 h2*mg/L | CLO (cohort 6 (10500 mg/m2)): 5.5 L/h and 3.0 L/h and 1.2 L/h and 3.9 L/h | Clast (cohort 6 (10500 mg/m2)): 74.8 µg/mL and 185.0 µg/mL and 337.5 µg/mL and 148.5 µg/mL | Cmax (cohort 6 (10500 mg/m2)): 265.0 µg/mL and 339.5 µg/mL and 451.0 µg/mL and 299.5 µg/mL | Cmax / Dose (cohort 6 (10500 mg/m2)): 0.0 mg/L/mg | Cmin (cohort 6 (10500 mg/m2)): 0 ng/mL | Elimination rate λz (cohort 6 (10500 mg/m2)): 0.7 h⁻¹ and 0.2 h⁻¹ and 0.1 h⁻¹ and 0.3 h⁻¹ | Half-life / T0.5 (cohort 6 (10500 mg/m2)): 1.0 h and 4.0 h and 11.0 h and 2.0 h | MRTTmax (cohort 6 (10500 mg/m2)): 1.7 h and 1.5 h and 1.9 h and 1.6 h | MRT∞ (cohort 6 (10500 mg/m2)): 2.0 h and 4.5 h and 14.3 h and 2.7 h | Tlast (cohort 6 (10500 mg/m2)): 10 h | Tmax (cohort 6 (10500 mg/m2)): 6.0 h (2×) and 3.0 h (2×) | VSSO (cohort 6 (10500 mg/m2)): 10.9 L and 13.4 L and 17.4 L and 10.8 L | VZO (cohort 6 (10500 mg/m2)): 7.9 L and 16.9 L and 19.3 L and 11.4 L | AUCTmax (cohort 7 (12390 mg/m2)): 2548.8 µg·h/mL and 2725.4 µg·h/mL and 2231.0 µg·h/mL | AUC∞ (cohort 7 (12390 mg/m2)): 3050.7 µg·h/mL and 3012.0 µg·h/mL and 2566.2 µg·h/mL | AUC∞ / Dose (cohort 7 (12390 mg/m2)): 0.2 mg·h/L/mg | AUMCTmax (cohort 7 (12390 mg/m2)): 14937.6 h2*mg/L and 15888.2 h2*mg/L and 12461.8 h2*mg/L | AUMC∞ (cohort 7 (12390 mg/m2)): 21377.1 h2*mg/L and 19295.7 h2*mg/L and 16684.7 h2*mg/L | CLO (cohort 7 (12390 mg/m2)): 4.1 L/h (2×) and 4.8 L/h | Clast (cohort 7 (12390 mg/m2)): 177.5 µg/mL and 152.0 µg/mL and 129.0 µg/mL | Cmax (cohort 7 (12390 mg/m2)): 367.5 µg/mL and 403.5 µg/mL and 311.0 µg/mL | Cmax / Dose (cohort 7 (12390 mg/m2)): 0.0 mg/L/mg | Cmin (cohort 7 (12390 mg/m2)): 0 ng/mL | Elimination rate λz (cohort 7 (12390 mg/m2)): 0.4 /h (2×) and 0.5 /h | Half-life / T0.5 (cohort 7 (12390 mg/m2)): 2.0 h and 1.3 h and 1.8 h | MRTTmax (cohort 7 (12390 mg/m2)): 1.9 h and 1.8 h and 1.6 h | MRT∞ (cohort 7 (12390 mg/m2)): 3.0 h and 2.4 h and 2.5 h | Tlast (cohort 7 (12390 mg/m2)): 10 h | Tmax (cohort 7 (12390 mg/m2)): 6.0 h | VSSO (cohort 7 (12390 mg/m2)): 12.2 L and 9.9 L and 12.1 L | VZO (cohort 7 (12390 mg/m2)): 11.5 L and 7.8 L and 12.5 L | AUCTmax (cohort 8 (14500 mg/m2)): 3458.0 µg·h/mL and 2612.8 µg·h/mL and 3213.9 µg·h/mL and 2461.1 µg·h/mL | AUC∞ (cohort 8 (14500 mg/m2)): 3978.5 µg·h/mL and 2818.3 µg·h/mL and 3977.9 µg·h/mL and 2763.6 µg·h/mL | AUC∞ / Dose (cohort 8 (14500 mg/m2)): 0.3 h*mg/L/mg (2×) and 0.2 h*mg/L/mg (2×) | AUMCTmax (cohort 8 (14500 mg/m2)): 20144.2 h2*mg/L and 14245.4 h2*mg/L and 18540.8 h2*mg/L and 14081.6 h2*mg/L | AUMC∞ (cohort 8 (14500 mg/m2)): 26577.3 h2*mg/L and 16679.9 h2*mg/L and 28758.2 h2*mg/L and 17835.7 h2*mg/L | CLO (cohort 8 (14500 mg/m2)): 3.6 L/h (2×) and 5.1 L/h and 5.2 L/h | Clast (cohort 8 (14500 mg/m2)): 220.5 µg/mL and 111.5 µg/mL and 226.5 µg/mL and 125.7 µg/mL | Cmax (cohort 8 (14500 mg/m2)): 496.0 µg/mL and 377.0 µg/mL and 464.5 µg/mL and 426.0 µg/mL | Cmax / Dose (cohort 8 (14500 mg/m2)): 0.0 mg/L/mg | Cmin (cohort 8 (14500 mg/m2)): 0 ng/mL | Elimination rate λz (cohort 8 (14500 mg/m2)): 0.4 /h (2×) and 0.5 /h and 0.3 /h | Half-life / T0.5 (cohort 8 (14500 mg/m2)): 1.6 h and 1.3 h and 2.3 h and 1.7 h | MRTTmax (cohort 8 (14500 mg/m2)): 1.8 h (2×) and 1.5 h and 1.7 h | MRT∞ (cohort 8 (14500 mg/m2)): 2.7 h and 1.9 h and 3.2 h and 2.5 h | Tlast (cohort 8 (14500 mg/m2)): 10 h | Tmax (cohort 8 (14500 mg/m2)): 6.0 h | VSSO (cohort 8 (14500 mg/m2)): 9.8 L and 9.9 L and 11.8 L and 12.9 L | VZO (cohort 8 (14500 mg/m2)): 8.6 L and 9.5 L and 12.3 L and 12.6 L | Half-life (range over the different cohorts): 1.3 to 3.3 h
